From patent US10028992B2, “Methods of treating muscular dystrophy” (BOARD OF REGENTS OF THE NEVADA SYSTEM OF HIGHER EDUCATION …, priority 2012, dated 2018)
Values joined by “and” are separate entries in the source; they are usually repeats but may differ in a detail not shown here. Equal values may be shown once. Read-outs that look alike come from different tables or passages of the source.

System: α7 integrin promoter
Assay: muscle cell-based assay: α7βgal+/− myoblasts/myotubes, LacZ reporter, β-galactosidase cleavage of FDG
Parameters: species or system mouse
Outline: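 Fluorescein generated from FDG by β-galactosidase reports α7 integrin promoter activity in differentiated myoblasts from α7+/− LacZ knock-in pups. Screening hits then went to dose-response, western blotting and a myostatin counterscreen.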

Row | Compound | Results in a α7+/− β-galactosidase assay, Myotubes, 0.5 uM (Myotubes, compound at 0.5 uM) | Results in a α7+/− β-galactosidase assay, Myotubes, 1 uM (Myotubes, compound at 1 uM) | Results in a α7+/− β-galactosidase assay, Myotubes, 5 uM (Myotubes, compound at 5 uM) | Results in a α7+/− β-galactosidase assay, Myotubes, 10 uM (Myotubes, compound at 10 uM) | Results in a α7+/− β-galactosidase assay, Myotubes, 20 uM (Myotubes, compound at 20 uM) | Results in a α7+/− β-galactosidase assay, Myotubes, 40 uM (Myotubes, compound at 40 uM) | Results in a α7+/− β-galactosidase assay, Myotubes, 0.5 uM | Results in a α7+/− β-galactosidase assay, Myotubes, 1 uM | Results in a α7+/− β-galactosidase assay, Myotubes, 5 uM | Results in a α7+/− β-galactosidase assay, Myotubes, 10 uM | Results in a α7+/− β-galactosidase assay, Myotubes, 20 uM | Results in a α7+/− β-galactosidase assay, Myotubes, 40 uM
1 | COc1ccc(Cl)cc1NC(=O)c1cc(-c2cc(C)ccc2O)[nH]n1 [drawing 373] | 0.00543 | 0.04041 | −0.08884 | −0.1274 | −0.1168 | −0.2232 |  |  |  |  |  | 
2 | CCC(C)C(CC)NC(=O)CSc1nnc(COc2ccc(Cl)cc2)o1 (stereo not shown) [drawing 374] | 0.09087 | 0.07758 | −0.09861 | −0.1776 | −0.01998 | −0.2485 |  |  |  |  |  | 
3 | N#Cc1ccc(Sc2nc3ccccc3[nH]2)cc1C#N [drawing 376] | 0.09647 | 0.1219 | 0.01154 | −0.06084 | −0.00606 | −0.1145 |  |  |  |  |  | 
4 | COc1cc(/C=C/CN2CCN(Cc3ccc(C)o3)C(CCO)C2)ccc1O (stereo not shown) [drawing 377] |  | 0.1027 and 0.08207 |  |  |  |  |  |  |  |  |  | 
5 | COc1ccccc1C(=O)OCc1ccc2sc(C)nc2c1 [drawing 378] | −0.04468 | 0.06534 | 0.05342 | −0.1134 | −0.02544 | −0.1114 |  |  |  |  |  | 
6 | NC(=O)COc1ccc(C(=O)/C=C2\C(=O)Nc3ccccc32)cc1 [drawing 379] | 0.04116 | 0.06227 | 0.08579 | −0.1303 | −0.2553 | −0.6822 |  |  |  |  |  | 
7 | CC1(C)Cc2ccccc2-c2nc3n(c(=O)c21)CCS3 [drawing 380] | 0.09354 | 0.08602 | −0.04079 | −0.05719 | −0.329 | −0.421 |  |  |  |  |  | 
8 | CN(/C(=N/S(=O)(=O)c1cccs1)c1ccccc1)c1ccccc1 [drawing 381] | −0.07971 | 0.1809 | 0.01531 | −0.02849 | 0.1022 | −0.209 |  |  |  |  |  | 
9 | CSc1ccc(S(=O)(=O)NCc2ccccc2)cc1 [drawing 382] | −0.1565 | −0.2515 | 0.02007 | 0.1738 | −0.1735 | −0.07044 |  |  |  |  |  | 
10 | O=C1Nc2ccccc2/C1=C/c1ccccc1F [drawing 383] | −0.06236 | −0.04077 | −0.1089 | 0.02646 | −0.3381 | −0.4226 |  |  |  |  |  | 
11 | CN1C(=O)/C(=C(/C#N)c2nc3ccccc3[nH]2)c2ccccc21 [drawing 384] | −0.07617 | −0.02413 | −0.1571 | 0.1257 | −0.2111 | −0.2699 |  |  |  |  |  | 
12 | CC1CC(C)(C)N=C(S)N1CC(=O)N(C)Cc1ccccc1 (stereo not shown) [drawing 385] | 0.02464 | −0.02121 | −0.03109 | 0.2144 | −0.02703 | 0.0594 |  |  |  |  |  | 
13 | Cc1noc(C)c1COc1ccc(C(=O)NCCc2ccccn2)cc1 [drawing 386] | 0.08027 | 0.1153 | −0.04323 | 0.2279 | −0.2443 | −0.1582 |  |  |  |  |  | 
14 | COCCSc1ccccc1C(=O)Nc1cc(C)cc(C)c1 [drawing 387] | −0.1267 | 0.09331 | −0.1086 | 0.1203 | −0.2283 | −0.2601 |  |  |  |  |  | 
15 | CC(=O)Nc1ccc(NC(=O)c2cc(=O)c3cc(C)cc(C)c3o2)cc1 [drawing 388] | −0.05012 | −0.03106 | −0.1165 | 0.3265 | −0.3385 | −0.2657 |  |  |  |  |  | 
16 | COc1ccc(-c2c[nH]nc2-c2ccc(OC)cc2)cc1 [drawing 389] |  |  |  |  |  |  | −0.01143 | 0.1883 | 0.3888 | 0.8585 | 0.03803 | −0.2518
17 | Cc1cccc(Sc2nc(-c3ccccc3)ccc2C#N)c1 [drawing 390] | −0.06701 | −0.1813 | 0.02472 | 0.2322 | −0.3206 | −0.2803 |  |  |  |  |  | 
18 | CCC(C)NC(=O)CSc1nnc(COc2ccc(Br)cc2)o1 (stereo not shown) [drawing 391] | −0.04347 | −0.169 | −0.2461 | −0.2857 | −0.2196 | −0.2848 |  |  |  |  |  | 
19 | Cc1ccc(N2C(=O)C3NN=C(C(=O)OCc4ccccc4)C3C2=O)cc1 (stereo not shown) [drawing 392] | −0.03749 | −0.0238 | −0.168 | −0.2332 | 0.00778 | −0.01262 |  |  |  |  |  | 
20 | Cc1cc([N+](=O)[O-])ccc1NC(=O)C(C)N1CCN(c2ccccn2)CC1 (stereo not shown) [drawing 393] | 0.0774 | 0.107 | −0.1042 | −0.1154 | −0.297 | −0.3729 |  |  |  |  |  | 
21 | CCc1nc(/C=C2\C(=O)Nc3ccccc32)c[nH]1 [drawing 394] | 0.2902 | 0.2582 | −0.08702 | −0.09062 | −0.0001 | −0.1577 |  |  |  |  |  | 
